Assay results published in ChEMBL document CHEMBL4400567, “Discovery of novel selective Janus kinase 2 (JAK2) inhibitors bearing a 1H-pyrazolo[3,4-d]pyrimidin-4-amino scaffold” (Bioorg Med Chem, 2019).

How the values were obtained:
[1] = cells; type: ADME, cell-based; settings: Homo sapiens, NK92, 48 h
Description: Cytotoxicity against human NK92 cells harboring JAK1/3 measured after 48 hrs by CellTiter-Glo assay

[2] = biological target: Tyrosine-protein kinase JAK1 (Homo sapiens, UniProt P23458); type: ADME
[3] = tested on: HEL; experiment: cells; type: functional, cell-based; settings: Homo sapiens, 48 h
Description: Antiproliferative activity against human HEL cells harboring JAK2 V617F mutant measured after 48 hrs by CellTiter-Glo assay

[4] = tested on: THP-1; experiment: cells; type: ADME, cell-based; settings: Homo sapiens
Description: Cytotoxicity against IL-4 induced JAK1/3 activated human THP1 cells preincubated for 1 hr followed by IL-4 induction and measured after 1 hr by CellTiter-Glo assay

[5] = tested on: TF-1; experiment: cells; type: functional, cell-based; settings: Homo sapiens, TF-1, 48 h
Description: Antiproliferative activity against JAK2 wild-type human TF1 cells measured after 48 hrs by CellTiter-Glo assay

Tyrosine-protein kinase JAK1, sequence (P23458 whole entry): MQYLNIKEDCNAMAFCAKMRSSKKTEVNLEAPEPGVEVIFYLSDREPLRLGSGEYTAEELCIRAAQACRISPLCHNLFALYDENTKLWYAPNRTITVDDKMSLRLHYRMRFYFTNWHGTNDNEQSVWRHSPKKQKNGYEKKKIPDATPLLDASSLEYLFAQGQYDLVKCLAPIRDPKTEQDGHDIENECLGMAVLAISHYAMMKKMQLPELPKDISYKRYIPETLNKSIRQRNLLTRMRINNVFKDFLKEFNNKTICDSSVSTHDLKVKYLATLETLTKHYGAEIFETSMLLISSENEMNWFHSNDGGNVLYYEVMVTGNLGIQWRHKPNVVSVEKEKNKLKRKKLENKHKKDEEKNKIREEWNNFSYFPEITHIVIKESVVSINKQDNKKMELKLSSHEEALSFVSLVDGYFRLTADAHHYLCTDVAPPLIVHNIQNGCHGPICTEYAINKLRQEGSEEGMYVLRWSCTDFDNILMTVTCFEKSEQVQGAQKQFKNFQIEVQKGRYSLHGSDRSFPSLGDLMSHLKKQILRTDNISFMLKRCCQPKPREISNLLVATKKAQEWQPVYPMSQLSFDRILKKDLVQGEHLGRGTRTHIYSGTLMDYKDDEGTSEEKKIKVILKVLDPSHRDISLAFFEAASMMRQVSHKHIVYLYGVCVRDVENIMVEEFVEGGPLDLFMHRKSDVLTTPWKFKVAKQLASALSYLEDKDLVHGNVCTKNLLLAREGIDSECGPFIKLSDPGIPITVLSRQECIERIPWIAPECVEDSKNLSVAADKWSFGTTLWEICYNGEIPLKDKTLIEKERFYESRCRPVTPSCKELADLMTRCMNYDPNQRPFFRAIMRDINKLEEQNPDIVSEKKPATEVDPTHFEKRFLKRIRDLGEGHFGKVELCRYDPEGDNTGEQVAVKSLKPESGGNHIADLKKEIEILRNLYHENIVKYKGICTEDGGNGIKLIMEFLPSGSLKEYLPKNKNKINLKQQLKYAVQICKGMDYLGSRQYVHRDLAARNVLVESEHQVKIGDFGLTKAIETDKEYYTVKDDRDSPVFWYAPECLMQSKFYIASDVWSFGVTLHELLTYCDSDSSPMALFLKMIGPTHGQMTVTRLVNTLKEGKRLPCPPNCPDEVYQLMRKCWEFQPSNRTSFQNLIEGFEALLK

Row | IC50 [1] [µM] | IC50 [2] [µM] | IC50 [3] [µM] | IC50 [4] [µM] | IC50 [5] [µM] | Structure (SMILES)
1 | 23.6 | 0.215 | 8.2 | 28.8 | 7.1 | C=CC(=O)N1CCCC(n2nc(-c3cc(C=O)n(C)n3)c3c(N)ncnc32)C1 (stereo not given)
2 | 22.1 | 0.104 | 4.7 | 18.5 | 2 | C=CC(=O)N1CCC(n2nc(-c3cc(C(C)(C)O)n(C)n3)c3c(N)ncnc32)C1 (stereo not given)
